Test [1] concerns TMD8 (ABC) or Karpas 422 (GCB) cells. The test can be described thus: 3H-thymidine incorporation proliferation assay with lenalidomide co-treatment. Format: cell-based. (In general: Dividing cells build labelled thymidine or BrdU into new DNA.)
The target of test [2] is CRBN (Homo sapiens, UniProt Q96SW2). Put plainly: Thalidomide analog bead assay with extracts of DF15R cells re-expressing wild type or mutant CRBN. The arrangement: re-express full length wild type (CRBN^WT); expressed in transfected cells; host or cells: DF15R (CRBN-deficient myeloma) cells, lentiviral transduction, cell extract. Format: binding. The settings on record: recombinant CRBN WT expressed in DF15R; preincubation of cell extracts with free compound. The protocol: (§1) DF15, DF15R or DF15R derived cell line extracts were prepared in NP 40 lysis buffer (0.5% NP40, 50 mM Tris HCl (pH 8.0), 150 mM NaCl, 0.5 mM DTT, 0.25 mM PMSF, 1× protease inhibitor mix (Roche, Indianapolis, Ind.) at approximately 2×10^8 cells per ml […]. Cell debris and nucleic acids were cleared by centrifugation (14,000 rpm 30 min 4° C.). In competition experiments 0.5 ml (3-5 mg protein) aliquots of the resulting extracts were preincubated (15 min room temp.) with 5 μl DMSO (control) or 5 μl compound at varying concentrations in DMSO. Thalidomide analog-coupled beads (0.3-0.5 mg) were added to protein extracts and samples rotated (2 hours, 4° C.). Beads were washed three times with 0.5 ml NP40 buffer, and then bound proteins were eluted with SDS-PAGE sample buffer.
(§2) Cell extracts from these lines were then used to assay the ability of CRBN to bind immunomodulatory agent compound.
(§3) Cell extracts from this line were used to assay the ability of CRBN^E377V to bind Immunomodulatory agent compound.

Test [3] deals with DF15R myeloma cells. The test can be described thus: Cell proliferation assay of DF15R cells re-expressing wild type or mutant CRBN treated with pomalidomide. Format: cell-based. The protocol: (A) Cell lines re-expressing full-length CRBN wild-type. W386A or W400A mutants were tested for the ability to bind immunomodulatory agent compounds. Assay was repeated at least three times. Representative Western blot of representative experiment is shown. (B) Cell proliferation assay of DF15 (sensitive). DF15R (resistant; CRBN^null), CRBNWT, CRBNW386A; CRBN400 cells treated with a dose response of pomalidomide. Assays were done in triplicate and error bars representative s.d. Data for each cell line was normalized to treatment with vehicle (DMSO). (C) Western blots of key downstream effectors of immunomodulatory agent resistance.
(A) Cell lines re-expressing RFP or full length CRBN wild type or E377V mutant were tested for the ability of CRBN proteins to bind immunomodulatory agent compounds. Assay was repeated at least three times. Representative Western blot of representative experiment is shown. (B) Cell proliferation assay of DF15 (sensitive), DF15R (resistant; CRBN^null), CRBN^WT, CRBN^E377V cells treated with a dose response of pomalidomide. Assays were done in triplicate and error bars represent s.d. Data for each cell line was normalized to treatment with vehicle (DMSO).
The antiproliferative effect of immunomodulatory agent compounds on myeloma cells is mediated through CRBN protein. […]

Test [4] has as its system H929 and U266 multiple myeloma cell lines. Put plainly: Cell viability by flow cytometry in CRBN inducible shRNA knockdown cells. Type of test: cell-based. To be noted: CRBN inducible knockdown vs shControl; 5 day treatment. The protocol: (A) An inducible shRNA construct targeting CRBN or a control construct was transduced into the multiple myeloma cell lines H929 and U266. Inducible shRNA expression (marked by turbo-RFP) was monitored by flow cytometry over a period of 1 to 9 days as indicated in the histograms (Top row). […] (B) CRBN protein expression was quantified by Western blotting. […] (D)-(F) After 9 days of shRNA inducible knock-down, cells were treated with increasing doses of pomalidomide and compound effect in cell viability was assayed by flow cytometry after 5 day treatment. […] Data are shown as mean of three independent experiments±s.d.
Inducible shRNA constructs targeting CRBN or a control construct (Open Biosystems) were transduced using spinoculation methodology into the multiple myeloma cell lines H929 and U266. Stably transduced cells were selected with puromycin. Inducible shRNA expression (marked by RFP) was monitored by fluorescence microscopy and flow cytometry using 1 μg/mL doxycycline. CRBN protein expression was quantified by Western blotting. Cell proliferation and viability were assessed by 7AAD/flow cytometry assays.
Background: Flow cytometry measures light scatter and fluorescence of single cells or particles in a stream.

The target in test [5] is MBP-IKZF1 (a.a. 140-168) / CRBN-DDB1 (Homo sapiens, UniProt Q13422+Q96SW2). The settings on record: 100 uM compound; IKZF1 domain with one predicted zinc finger.
For test [6], the system named is human PBMCs. The test can be described thus: IL2 release co-stimulation in human PBMCs treated with anti-CD3. Type of test: cell-based.
Test [7] has as its target T1, CRBN (Homo sapiens, UniProt Q96SW2, E377V).
T1 construct: re-express full length wild type (CRBN^WT); expressed in transfected cells; host or cells: DF15R (CRBN-deficient myeloma) cells, lentiviral transduction, cell extract
The test can be described thus: Thalidomide analog bead assay with extracts of DF15R cells re-expressing wild type or mutant CRBN. Type of test: binding. The settings on record: CRBN E377V mutant; preincubation of cell extracts with free compound. The protocol: as §1, §2, §3

Test [8] has as its system mouse splenocytes. The test can be described thus: IL2 induction in mouse splenocytes / mouse PBMC treated with anti-CD3. Format: cell-based. The text has this: Data are shown as mean±s.d. (B) Costimulation of IL2 release by anti-CD28 (squares) or pomalidomide (circles) in mouse PBMC treated with anti-CD3. Data are shown as mean±s.d.

Take `Cc1nc2cccc(N)c2c(=O)n1C1CCC(=O)NC1=O` (stereo not drawn) [Compound A, 3-(5-amino-2-methyl-4-oxo-4H-quinazolin-3-yl)-piperidine-2,6-dione]: the “anti-proliferative effects on co-treatment with lenalidomide” value in test [1] (co-treatment with 10 μM lenalidomide, 3H-thymidine incorporation) was “blocks anti-proliferative effects”.
In the case of `Nc1cccc2c1CN(C1CCC(=O)NC1=O)C2=O` (stereo not drawn) [lenalidomide, 3-(4-amino-1-oxo-1,3-dihydro-isoindol-2-yl)-piperidine-2,6-dione, reference compound], the “competition for CRBN” value in test [1] (co-culture with Compound A or Compound C) is “competes with Compound A and Compound C for CRBN”.
As for `Nc1cccc2c1C(=O)N(C1CCC(=O)NC1=O)C2=O` (stereo not drawn) [pomalidomide], the “competition for CRBN binding to thalidomide analog-beads” value in test [2] was “competed for binding to the beads”; in test [7] it was “competed”. In test [3] (DF15R re-expressing CRBN E377V), the antiproliferative sensitivity result is listed as “unable to rescue sensitivity”. Also, the antiproliferative effect entry in test [3] (DF15R re-expressing CRBN WT) was “regained antiproliferative effect”. Moreover, the “anti-proliferative effects in CRBN knockdown cells” value in test [4] was “reduced anti-proliferative effects”. Also, the “pull down of CRBN-DDB1 by minimal IKZF1 domain” value in test [5] is “sufficient to pull down CRBN-DDB1”. The IL2 release result in test [6] is on record as “Co-stimulation of IL2 release”. Also, the IL-2 induction result in test [8] is “resistant to the IL-2 inducing effects”.
Take `O=C1CCC(N2C(=O)c3ccccc3C2=O)C(=O)N1` (stereo not drawn) [thalidomide]: the “competition for CRBN binding to thalidomide analog-beads” value is “competed for binding to the beads” in test [2] and “competed” in test [7].
